Measured values: US20160296590A1, “METHOD OF TREATING OR PREVENTING EPILEPSY OR SEIZURES USING ONE OR MORE NEURAL REGENERATION PEPTIDES” (CURONZ HOLDINGS COMPANY LIMITED, priority 2013, published 2016)
“Also recorded” adds a separate entry of the source. Where no end group is shown, it is not given here. [ ]: non-standard residue; d: D form. Aib = CC(C)(N)C(=O)O

Columns and labels:
Type in all cases: in vivo, rat
[1] = test system: PTZ-induced seizures; assay: Behavioural test of PTZ-induced seizure attacks; settings: for Behavioural test Severity: seizure score 0-6
Protocol: Adult male wistar rats (200-250g) were housed under controlled conditions (ambient temperature=22° C., humidity=40%; 12-h light/dark cycle) with food and water ad libitum. Animals were age- and weight-matched and randomly received by intra peritoneal injection NRP2945 in saline (5, 10 or 20 μg/kg) or saline alone (control) thirty minutes before the i.p. injection of pentylenetetrazol (PTZ; 50 mg/kg dissolved in 0.9% saline). All experiments were carried out according to the protocol approved by the Animal Ethics Committee of Shefa Neuroscience Center, Tehran, Iran. After each PTZ-injection, the convulsive behaviour of each rat was assessed for 30 min, and resultant seizures were scored as follows: 0=normal behaviour; 1=immobility; 2=rigid posture; 3=repetitive scratching, circling, or head bobbing; 4=forelimb clonus, rearing, and falling; 5=repeated occurrence of level four behaviour, 6=severe tonic-clonic behaviour or status epilepticus (Karimzadeh et al., 2013). Latency of seizure onset was defined as the average length of time in seconds between PTZ administration an initially detectable and seizure. A generalized seizure was characterised by symmetric forelimb and hind limb tonus, followed by hind limb clonus and subsequent jumping activity. Because some animals occasionally had more than one seizure, the seizure duration was assessed as the sum of durations of these multiple seizures.

[2] = test system: PTZ-induced epileptiform burst discharges; assay: Electrocorticogram (ECoG) recording of PTZ-induced epileptiform burst discharges
Protocol: Adult male wistar rats (200-250g) were housed under controlled conditions (ambient temperature=22° C., humidity=40%; 12-h light/dark cycle) with food and water ad libitum. Animals were age- and weight-matched and randomly received by intra peritoneal injection NRP2945 in saline (5, 10 or 20 μg/kg) or saline alone (control) thirty minutes before the i.p. injection of pentylenetetrazol (PTZ; 50 mg/kg dissolved in 0.9% saline). All experiments were carried out according to the protocol approved by the Animal Ethics Committee of Shefa Neuroscience Center, Tehran, Iran. Animals were anaesthetized with chloral hydrate 3.5% (dissolved in normal 0.9% saline; Sigma-Aldrich) and the head of each rat was placed in a stereotaxical instrument (Stoelting Instruments, USA). Epidural recording electrodes were stereotaxically implanted above the left and right somatosensory cortices (3.0 mm posteriorly to Bregma and 3.0 mm laterally from the midline) under continuous chloral hydrate anesthesia. The reference electrode is located at the nasal bone. ECoG was recorded via monopolar silver electrodes connected to an amplifier (EXT-02 F, NPI, Germany; with band-pass filters at […], sampling rate 10 kHz) and stored by a digital oscilloscope. ECoG recordings were performed for 30 minutes after receiving saline or NRP2945 (5, 10, 20 μg/kg) and 30 minutes after the injection of PTZ. Latency, duration, amplitude, and frequency of epileptic spikes activity were calculated using AxoScope 10 software (Axon Instruments, CA, USA).

[3] = test system: dark neurons; assay: Dark neuron count (toluidine blue, physical dissector) after PTZ-induced seizures; settings: hippocampal CA1 and CA3 areas and somatosensory cortex, 5, 10 and 20 μg/kg
Protocol: (§1) Adult male wistar rats (200-250g) were housed under controlled conditions (ambient temperature=22° C., humidity=40%; 12-h light/dark cycle) with food and water ad libitum. Animals were age- and weight-matched and randomly received by intra peritoneal injection NRP2945 in saline (5, 10 or 20 μg/kg) or saline alone (control) thirty minutes before the i.p. injection of pentylenetetrazol (PTZ; 50 mg/kg dissolved in 0.9% saline). All experiments were carried out according to the protocol approved by the Animal Ethics Committee of Shefa Neuroscience Center, Tehran, Iran.
The volume-weighted mean volume of normal neurons was calculated directly by point-sampled intercept on 10 uniform systematically and randomly sampled microscopic fields of the pyramidal layers of hippocampal areas CA1 and CA3as well as the somatosensory cortex. A lattice of test points on lines was superimposed randomly onto the traced nuclear profiles in each particular field. […] These lines produced point-sampled intercepts, the lengths of which were measured and cubed. […] For quantitative analysis of dark neurons, the physical dissector method was used. […]
Animals were deeply anaesthetised with chloral hydrate (3.5%; Sigma-Aldrich) and perfused transcardially with 200 ml of saline followed by 200 ml of a solution containing 1% paraformaldehyde (PFA). […] The magnification was calculated using an objective micrometer.

[4] = test system: normal neurons; assay: Volume-weighted mean volume of normal neurons (stereology) after PTZ-induced seizures; parameters: Mean volume of normal neurons CA1 / Mean volume of normal neurons CA3 / Mean volume of normal neurons Cortex: unit not given here; settings: for Mean volume of normal neurons CA1: hippocampal CA1; for Mean volume of normal neurons CA1 / Mean volume of normal neurons CA3 / Mean volume of normal neurons Cortex: rats; for Mean volume of normal neurons CA3: hippocampal CA3; for Mean volume of normal neurons Cortex: somatosensory cortex
Protocol: as §1
The volume-weighted mean volume of normal neurons was calculated directly by point-sampled intercept on 10 uniform systematically and randomly sampled microscopic fields of the pyramidal layers of hippocampal areas CA1 and CA3as well as the somatosensory cortex. A lattice of test points on lines was superimposed randomly onto the traced nuclear profiles in each particular field. Nuclei of neurons were marked and two isotropic lines from randomly selected directions were centred on this neuron and superimposed. The intersection of each line with the outer surface of the respective neuron's soma was marked. These lines produced point-sampled intercepts, the lengths of which were measured and cubed. The mean was multiplied by […], and finally all intercepts were averaged to give an estimate of the volume-weighted mean neuronal volume. For quantitative analysis of dark neurons, the physical dissector method was used. Ten pairs of sections, with […] distance, were collected from each brain. The first section of each pair was designated as the reference and the second one was used for comparison. On each pair of sections, at least 10 microscopic fields were selected by uniform systematic-random sampling in every area of interest. Using the unbiased frame and physical dissector counting rule, the counting of dark neurons in each field was carried out (Jafarian et al., 2010).
Animals were deeply anaesthetised with chloral hydrate (3.5%; Sigma-Aldrich) and perfused transcardially with 200 ml of saline followed by 200 ml of a solution containing 1% paraformaldehyde (PFA). After perfusion, all rats were decapitated and the brains were removed. The brains were kept in 1% PFA for at least 10 days and were then processed for histological studies as follows. The brain was cut into transverse sections of 8 µm thickness. Sections were stained with toluidine blue. The sections were selected by uniform systematic random sampling in every area of interest. Different areas (hippocampal CA1 and CA3 areas and somatosensory neocortex) were studied under a light microscope (BX51, Olympus, Japan) equipped with a digital camera. Digital photographs were taken using a 40x oil immersion objective lens (Olympus, Japan). The magnification was calculated using an objective micrometer.

[5] = test system: GABAA receptor α subunit; assay: Immunohistochemistry of GABAA receptor α subunit expression after PTZ injection; settings: 20 μg/kg; somatosensory cortex and hippocampal CA1 area; P<0.001
Protocol: as §1
(§2) Animals were deeply anaesthetized with chloral hydrate and perfused transcardially with 200 ml of saline followed by 600 ml of 4% PFA solution. The brains were extracted and kept in 4% PFA for at least 4 days at 4° C. and were then processed for immunohistochemistry studies. The serial (8 μm) coronal sections were prepared. Three paraffin embedded sections in 1.8 to 3.3 mm posterior to the bregma from each animal were cleared and rehydrated through a series of xylol and alcohol and washed with phosphate buffered saline (PBS) three times and incubated in blockage solution (3% H2O2/methanol for 5 min). After washing in PBS, slides were boiled in sodium citrate buffer at 95° C, for 10 min. […]

[6] = test system: GABAA receptor β subunit; assay: Immunohistochemistry of GABAA receptor β subunit expression after PTZ injection; settings: 20 μg/kg; only CA1 hippocampal region; P<0.001
Protocol: as §1, §2

[7] = test system: GAD-65; assay: Immunohistochemistry of GAD-65 expression after PTZ injection; settings: 20 μg/kg; somatosensory cortex, CA1 and CA3 hippocampal areas; P<0.001
Protocol: as §1, §2

[8] = 5 μg/kg i.p. 30 min before PTZ, rats
[9] = 10 μg/kg i.p. 30 min before PTZ, rats
[10] = 5 μg/kg i.p. 30 min before PTZ, anaesthetized rats
[11] = 10 μg/kg i.p. 30 min before PTZ, anaesthetized rats

GlyArgArgAlaAlaProGlyArgAibGlyGly (GRRAAPGR[Aib]GG) [NRP2945, 11-residue neural regeneration peptide, derived from amino acid position 40-50 of human CAPS2]
Behavioural test Latency ([1]; 5 μg/kg i.p. 30 min before PTZ 50 mg/kg i.p., rats): 230.2 ± 10.6 s
Behavioural test Duration [1, 8]: 35.83 ± 5.9 s
Behavioural test Severity [1, 8]: 3.67 ± 0.21
Behavioural test Latency ([1]; 10 μg/kg i.p. 30 min before PTZ 50 mg/kg i.p., rats): 150.2 ± 7.4 s
Behavioural test Duration [1, 9]: 37.67 ± 7.3 s
Behavioural test Severity [1, 9]: 3.67 ± 0.21
PTZ-induced seizures or convulsions ([1]; 20 μg/kg i.p. 30 min before PTZ, rats): completely prevented
latency of seizure attacks compared to control ([1]; 5 and 10 μg/kg i.p.): not affecting
severity of seizure attacks compared to control ([1]; 5 and 10 μg/kg i.p.): not affecting
total duration of seizure attacks compared to control ([1]; 5 and 10 μg/kg i.p., p<0.05, n=12): reduced
ECoG Amplitude [2, 10]: 1.1 ± 0.04 mV
ECoG Duration [2, 10]: 60 ± 1.2 s
ECoG Frequency [2, 10]: 4.7 ± 0.3 per min
ECoG Latency [2, 10]: 326 ± 24 s
ECoG Amplitude [2, 11]: 0.84 ± 0.1 mV
ECoG Duration [2, 11]: 60 ± 2.1 s
ECoG Frequency [2, 11]: 6.67 ± 0.9 per min
ECoG Latency [2, 11]: 417 ± 37 s
development of epileptiform field potentials ([2]; 20 μg/kg i.p. 30 min before PTZ, anaesthetized rats): completely prevented
amplitude of epileptiform field potentials compared to control ([2]; 5 and 10 μg/kg i.p., P≦0.001): significantly smaller; also recorded: decreased
duration of epileptiform field potentials compared to control ([2]; 5 and 10 μg/kg i.p., P≦0.001): significantly shorter; also recorded: decreased
latency time to onset of first spike waves compared to control ([2]; 5 and 10 μg/kg i.p., P≦0.001): increased
repetition rate (frequency) of epileptiform field potentials compared to control ([2]; 5 and 10 μg/kg i.p., P≦0.001): significantly lower; also recorded: decreased
Density (production) of dark neurons in comparison to saline [3]: significantly decreased
Density (production) of dark neurons in comparison to saline ([3]; listed as NRP 2945): inhibited
mean volume of normal neurons after PTZ-induced seizures compared to control ([4]; 5 μg/kg): did not affect
mean volume-weighted volume of normal neurons compared to control ([4]; 10 and 20 μg/kg, CA1, CA3 and somatosensory cortex, P≦0.001): higher; also recorded: larger
Mean volume of normal neurons CA1 ([4]; 5 μg/kg i.p. before PTZ): 380.9 ± 7.1
Mean volume of normal neurons CA1 ([4]; 10 μg/kg i.p. before PTZ): 413.1 ± 4.4
Mean volume of normal neurons CA1 ([4]; 20 μg/kg i.p. before PTZ): 451.9 ± 5.5
Mean volume of normal neurons CA3 ([4]; 5 μg/kg i.p. before PTZ): 387.9 ± 3.2
Mean volume of normal neurons CA3 ([4]; 10 μg/kg i.p. before PTZ): 438.6 ± 5.6
Mean volume of normal neurons CA3 ([4]; 20 μg/kg i.p. before PTZ): 474.1 ± 5.1
Mean volume of normal neurons Cortex ([4]; 5 μg/kg i.p. before PTZ): 340.8 ± 3.1
Mean volume of normal neurons Cortex ([4]; 10 μg/kg i.p. before PTZ): 395.7 ± 6.1
Mean volume of normal neurons Cortex ([4]; 20 μg/kg i.p. before PTZ): 387.9 ± 7.5
expression of GABAA receptor α subunit compared to control [5]: higher expression; also recorded: significant enhancement
expression of GABAA receptor β subunit compared to control [6]: higher; also recorded: enhanced
expression of GAD-65 immunoreactive neurons compared to control [7]: significantly higher; also recorded: significant increase
